# Source: ChEMBL document CHEMBL1201862, “PubChem BioAssay data set” (2004)
# Calls of active or inactive are those of the source.
# What was measured:
# Troponin, cardiac muscle = Troponin, cardiac muscle (Homo sapiens, UniProt P19429+P45379+P63316); assay: Fluorescence-based biochemical high throughput dose response assay for activators of the calcium sensitivity of cardiac Regulated Thin Filaments (RTF). [Related pubchem assays (depositor defined):AID493008, AID493018, AID504382, AID504383]; format: protein-complex assay
# [1] = HeLa cell cytotoxicity, dose response, cytotoxicity control for MgcRacGAP inhibitor project (AID 624300); format: functional
# [2] = Luminescence Cell-Based Dose Confirmation to Identify Activators of 5'UTR Stem-Loop Driven Alpha-Synuclein mRNA Translation in H4 Neuroglioblastoma Cells. [Related pubchem assays: 1829 (Project Summary), 1814 (Primary HTS)]; format: functional
# [3] = Luminescence Cell-Based Dose Response to Identify Activators of Luciferase Translation or Activity in H4-C Neuroglioblastoma Cells. [Related pubchem assays: 1829 (Project Summary), 1814 (Primary HTS)]; format: functional
# [4] = Luminescence Cell-Based Dose Response HTS to Identify Activators of Luciferase Translation or Activity in H4 […] Cells. [Related pubchem assays: 1829 (Project Summary), 1814 (Primary HTS)]; format: functional
# [5] = molecular target: T1, Rac GTPase-activating protein 1 (Homo sapiens, UniProt Q9H0H5); assay: MgcRacGAP GTPase-activating activity inhibitors, confirmation, biochemical, ADP Hunter fluorescence, primary and confirmatory (AID 624330); format: functional
# T1 sequence (Q9H0H5 whole entry): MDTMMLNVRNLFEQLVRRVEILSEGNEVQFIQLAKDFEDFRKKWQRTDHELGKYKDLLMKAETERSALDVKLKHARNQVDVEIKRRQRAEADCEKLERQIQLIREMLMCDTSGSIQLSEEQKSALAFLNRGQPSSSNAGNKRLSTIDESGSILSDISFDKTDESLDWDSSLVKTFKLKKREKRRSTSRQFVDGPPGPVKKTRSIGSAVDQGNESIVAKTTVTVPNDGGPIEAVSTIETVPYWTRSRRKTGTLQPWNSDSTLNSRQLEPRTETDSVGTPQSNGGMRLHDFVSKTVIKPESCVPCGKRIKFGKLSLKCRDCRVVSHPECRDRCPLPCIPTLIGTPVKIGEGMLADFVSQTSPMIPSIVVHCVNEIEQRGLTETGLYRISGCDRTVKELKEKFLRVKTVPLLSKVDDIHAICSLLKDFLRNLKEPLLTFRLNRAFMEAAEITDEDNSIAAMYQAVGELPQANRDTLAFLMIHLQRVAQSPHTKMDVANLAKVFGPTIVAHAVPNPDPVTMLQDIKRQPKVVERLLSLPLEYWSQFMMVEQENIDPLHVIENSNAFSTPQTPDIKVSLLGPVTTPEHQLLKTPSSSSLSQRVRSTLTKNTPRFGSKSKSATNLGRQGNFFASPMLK
# [6] = Luminescence Cell-Based Dose Response to Identify Activators of 5'UTR Stem-Loop Driven Prion Protein mRNA Translation in H4-C Neuroglioblastoma Cells. [Related pubchem assays: 1829 (Project Summary), 1814 (Primary HTS)]; format: functional
# Large T antigen = Large T antigen (Simian virus 40, UniProt P03070); format: functional, Betapolyomavirus macacae;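 also: Confirmatory-stage PubChem screen for compounds that inhibit SV40 T antigen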
# Cytochrome P450 3A4 [7] = molecular target: T2, Cytochrome P450 3A4 (Homo sapiens, UniProt P08684); settings: Potency
# Cytochrome P450 1A2 = molecular target: T3, Cytochrome P450 1A2 (Homo sapiens, UniProt P05177);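 also: PubChem cytochrome P450 panel assay, CYP1A2 panel member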
# T3 sequence (P05177 whole entry): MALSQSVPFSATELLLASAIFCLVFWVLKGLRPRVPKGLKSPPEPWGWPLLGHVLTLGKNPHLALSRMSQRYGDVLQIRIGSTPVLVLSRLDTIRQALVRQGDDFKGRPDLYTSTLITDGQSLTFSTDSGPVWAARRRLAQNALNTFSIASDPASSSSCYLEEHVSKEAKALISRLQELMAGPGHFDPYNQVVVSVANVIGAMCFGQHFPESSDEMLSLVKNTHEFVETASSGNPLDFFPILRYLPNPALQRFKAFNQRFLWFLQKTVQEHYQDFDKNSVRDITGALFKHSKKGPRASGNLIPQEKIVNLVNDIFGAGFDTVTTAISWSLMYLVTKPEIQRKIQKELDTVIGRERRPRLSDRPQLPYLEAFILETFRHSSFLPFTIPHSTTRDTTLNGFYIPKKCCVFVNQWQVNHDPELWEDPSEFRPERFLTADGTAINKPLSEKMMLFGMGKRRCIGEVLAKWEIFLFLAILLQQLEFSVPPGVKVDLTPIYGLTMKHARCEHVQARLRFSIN
# Cytochrome P450 3A4 [8] = molecular target: T2, Cytochrome P450 3A4
# Cytochrome P450 2D6 = Cytochrome P450 2D6 (Homo sapiens, UniProt P10635);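 also: CYP2D6 member of a cytochrome P450 panel assay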
# [9] = molecular target: T4, Mannose-6-phosphate isomerase (Homo sapiens, UniProt P34949); assay: PMI enzyme inhibitors, confirmation, biochemical, fluorescence intensity (AID 1535)
# T4 sequence (P34949 whole entry): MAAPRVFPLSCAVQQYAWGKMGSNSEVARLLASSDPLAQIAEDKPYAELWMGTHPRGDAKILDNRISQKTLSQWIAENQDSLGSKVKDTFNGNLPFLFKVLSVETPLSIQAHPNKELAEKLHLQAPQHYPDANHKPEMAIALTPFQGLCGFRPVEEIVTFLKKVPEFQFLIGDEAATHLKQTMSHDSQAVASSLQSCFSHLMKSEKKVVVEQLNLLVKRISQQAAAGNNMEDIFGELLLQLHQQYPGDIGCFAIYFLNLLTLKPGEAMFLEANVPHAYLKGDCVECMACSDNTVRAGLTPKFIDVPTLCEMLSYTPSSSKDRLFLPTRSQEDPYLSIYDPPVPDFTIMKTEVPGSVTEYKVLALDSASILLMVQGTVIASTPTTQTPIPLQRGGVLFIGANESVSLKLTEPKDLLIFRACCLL
# [10] = A cytotoxicity screen of small molecule inhibitors of the PhoP region in Salmonella typhi identified in the primary screen. [Related pubchem assays: 1850, 1864, 1985 ]; format: functional
# Bcl-2-like protein 10 = molecular target: T5, Bcl-2-like protein 10 (Homo sapiens, UniProt Q9HD36); assay: displacers of TR3 peptide from Bcl-B, primary screen, selectivity assay for Bfl-1 inhibitor project, biochemical, fluorescence polarization, FITC-TR3 peptide (AID 748);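 also: fluorescence polarization from a fluorescein-labelled TR3 peptide binding purified Bcl-B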
# T5 sequence (Q9HD36 whole entry): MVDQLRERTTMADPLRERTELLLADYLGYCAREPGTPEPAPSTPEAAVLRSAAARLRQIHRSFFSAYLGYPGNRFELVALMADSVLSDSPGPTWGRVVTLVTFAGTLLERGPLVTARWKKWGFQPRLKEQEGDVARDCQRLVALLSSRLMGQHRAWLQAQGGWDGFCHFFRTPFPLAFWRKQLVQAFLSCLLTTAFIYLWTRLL
# Estrogen receptor beta [11] = molecular target: T6, Estrogen receptor beta (Homo sapiens, UniProt Q92731); assay: ERβ–SRC-3 coactivator interaction inhibitors, confirmation, orthogonal assay, biochemical, ELISA, streptavidin-HRP readout (AID 1060)
# Estrogen receptor beta [12] = molecular target: T6, Estrogen receptor beta
# HeLa = assay: HeLa cell cytotoxicity, dose response, cytotoxicity control, 24 h, cherry-picked samples (AID 504726); format: functional, cell-based; settings: Homo sapiens;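 also: potency for cytotoxicity as loss of luminescence signal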
# [13] = molecular target: Induced myeloid leukemia cell differentiation protein Mcl-1 (Homo sapiens, UniProt Q07820); format: functional
# [14] = molecular target: T4, Mannose-6-phosphate isomerase; assay: human PMI inhibitors, high substrate, primary screen, biochemical, fluorescence intensity, high mannose 6-phosphate (AID 1220)
# [15] = molecular target: Mitogen-activated protein kinase 10 (Homo sapiens, UniProt P53779); assay: Dose response biochemical screening assay for inhibitors of c-Jun N-Terminal Kinase 3 (JNK3). [Related pubchem assays: 746 ]
# [16] = molecular target: T7, Carboxy-terminal domain RNA polymerase II polypeptide A small phosphatase 1 (Homo sapiens, UniProt Q9GZU7); assay: inhibitors of CTDSP1, concentration-response testing, biochemical assay, absorbance-based, actives from ultra-high-throughput screening (AID 540297); format: functional
# T7 sequence (Q9GZU7 whole entry): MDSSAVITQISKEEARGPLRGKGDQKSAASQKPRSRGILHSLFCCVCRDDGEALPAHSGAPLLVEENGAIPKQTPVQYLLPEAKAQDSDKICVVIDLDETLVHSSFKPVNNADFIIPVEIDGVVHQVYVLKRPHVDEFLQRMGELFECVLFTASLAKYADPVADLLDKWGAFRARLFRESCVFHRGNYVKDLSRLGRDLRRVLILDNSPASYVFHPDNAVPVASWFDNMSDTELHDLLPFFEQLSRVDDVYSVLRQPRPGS
# H4 = assay: Luminescence Cell-Based Dose Response HTS to Identify Activators of 5'UTR Stem-Loop Driven Prion Protein mRNA Translation in H4 Neuroglioblastoma Cells. [Related pubchem assays: 1829 (Project Summary), 1814 (Primary HTS)]; format: functional; settings: Homo sapiens
# [17] = Luminescence Cell-Based Dose Confirmation HTS to Identify Activators of 5'UTR Stem-Loop Driven Alpha-Synuclein mRNA Translation in H4 Neuroglioblastoma Cells. [Related pubchem assays: 1829 (Project Summary), 1814 (Primary HTS)]; format: functional
# Phosphomannomutase 2 = molecular target: T8, Phosphomannomutase 2 (Homo sapiens, UniProt O15305); assay: Counter screen SAR assay for PMM2 inhibitors via a fluorescence intensity assay. [Related pubchem assays (depositor defined):AID1545, AID1574]
# T8 sequence (O15305 whole entry): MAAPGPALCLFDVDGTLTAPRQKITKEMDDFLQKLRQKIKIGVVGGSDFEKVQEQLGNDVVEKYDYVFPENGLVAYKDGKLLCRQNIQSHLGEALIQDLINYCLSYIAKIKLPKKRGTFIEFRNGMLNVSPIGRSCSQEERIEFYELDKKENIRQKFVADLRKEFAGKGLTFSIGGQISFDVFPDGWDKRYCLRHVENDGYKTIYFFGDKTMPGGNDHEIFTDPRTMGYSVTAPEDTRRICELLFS
# T2 sequence (P08684 whole entry): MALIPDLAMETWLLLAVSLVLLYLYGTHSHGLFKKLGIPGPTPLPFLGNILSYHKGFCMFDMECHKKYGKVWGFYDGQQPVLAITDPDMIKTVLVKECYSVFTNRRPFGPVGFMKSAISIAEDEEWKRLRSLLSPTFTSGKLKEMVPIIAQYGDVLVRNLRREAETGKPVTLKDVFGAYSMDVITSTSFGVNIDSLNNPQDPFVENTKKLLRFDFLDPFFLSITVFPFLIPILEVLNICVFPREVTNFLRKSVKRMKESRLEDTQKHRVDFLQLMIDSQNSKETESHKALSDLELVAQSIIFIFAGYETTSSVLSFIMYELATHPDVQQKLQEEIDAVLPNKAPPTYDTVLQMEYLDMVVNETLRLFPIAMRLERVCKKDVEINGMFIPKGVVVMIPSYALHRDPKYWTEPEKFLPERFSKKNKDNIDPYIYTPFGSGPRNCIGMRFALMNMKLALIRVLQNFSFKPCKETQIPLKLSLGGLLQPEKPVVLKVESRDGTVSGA
# Chain of Mitogen-activated protein kinase 10 (P53779 whole entry, the tested form may be a part): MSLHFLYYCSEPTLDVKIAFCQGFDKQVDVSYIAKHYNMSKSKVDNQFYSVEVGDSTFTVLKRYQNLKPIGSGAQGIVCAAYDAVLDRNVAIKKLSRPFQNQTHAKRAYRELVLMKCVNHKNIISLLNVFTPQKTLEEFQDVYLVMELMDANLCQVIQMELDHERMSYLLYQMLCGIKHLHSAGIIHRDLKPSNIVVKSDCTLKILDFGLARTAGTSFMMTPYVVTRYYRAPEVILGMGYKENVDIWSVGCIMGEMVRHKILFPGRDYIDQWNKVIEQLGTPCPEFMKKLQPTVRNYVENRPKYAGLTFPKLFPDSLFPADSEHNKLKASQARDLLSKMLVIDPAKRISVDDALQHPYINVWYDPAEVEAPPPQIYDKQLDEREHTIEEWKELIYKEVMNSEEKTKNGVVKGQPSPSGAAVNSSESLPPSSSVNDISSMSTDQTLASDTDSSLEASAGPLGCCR
# T6 sequence (Q92731 whole entry): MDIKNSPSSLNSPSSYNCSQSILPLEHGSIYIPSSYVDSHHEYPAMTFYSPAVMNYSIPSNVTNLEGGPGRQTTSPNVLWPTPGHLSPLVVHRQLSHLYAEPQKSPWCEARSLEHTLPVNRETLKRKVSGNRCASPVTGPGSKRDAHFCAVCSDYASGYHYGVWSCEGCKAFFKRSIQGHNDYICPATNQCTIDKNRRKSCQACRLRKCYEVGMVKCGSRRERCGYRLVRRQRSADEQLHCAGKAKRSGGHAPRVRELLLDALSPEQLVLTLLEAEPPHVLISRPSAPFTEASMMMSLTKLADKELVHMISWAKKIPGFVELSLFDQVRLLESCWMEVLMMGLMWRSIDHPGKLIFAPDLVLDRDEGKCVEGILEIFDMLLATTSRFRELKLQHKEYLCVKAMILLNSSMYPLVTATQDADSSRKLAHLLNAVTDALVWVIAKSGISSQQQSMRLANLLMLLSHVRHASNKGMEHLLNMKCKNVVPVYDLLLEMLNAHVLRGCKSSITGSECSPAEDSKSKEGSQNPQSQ
# Chain of Induced myeloid leukemia cell differentiation protein Mcl-1 (Q07820 whole entry): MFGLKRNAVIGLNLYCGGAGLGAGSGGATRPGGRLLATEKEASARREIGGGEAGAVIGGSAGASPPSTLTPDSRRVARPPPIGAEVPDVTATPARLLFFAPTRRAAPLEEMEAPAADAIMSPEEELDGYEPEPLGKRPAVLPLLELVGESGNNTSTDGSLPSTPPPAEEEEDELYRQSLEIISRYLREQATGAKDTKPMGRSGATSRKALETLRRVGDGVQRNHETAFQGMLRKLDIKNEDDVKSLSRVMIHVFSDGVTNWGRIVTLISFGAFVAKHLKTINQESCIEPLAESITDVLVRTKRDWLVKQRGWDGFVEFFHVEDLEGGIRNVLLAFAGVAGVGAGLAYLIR
# Chain of Large T antigen (P03070 whole entry): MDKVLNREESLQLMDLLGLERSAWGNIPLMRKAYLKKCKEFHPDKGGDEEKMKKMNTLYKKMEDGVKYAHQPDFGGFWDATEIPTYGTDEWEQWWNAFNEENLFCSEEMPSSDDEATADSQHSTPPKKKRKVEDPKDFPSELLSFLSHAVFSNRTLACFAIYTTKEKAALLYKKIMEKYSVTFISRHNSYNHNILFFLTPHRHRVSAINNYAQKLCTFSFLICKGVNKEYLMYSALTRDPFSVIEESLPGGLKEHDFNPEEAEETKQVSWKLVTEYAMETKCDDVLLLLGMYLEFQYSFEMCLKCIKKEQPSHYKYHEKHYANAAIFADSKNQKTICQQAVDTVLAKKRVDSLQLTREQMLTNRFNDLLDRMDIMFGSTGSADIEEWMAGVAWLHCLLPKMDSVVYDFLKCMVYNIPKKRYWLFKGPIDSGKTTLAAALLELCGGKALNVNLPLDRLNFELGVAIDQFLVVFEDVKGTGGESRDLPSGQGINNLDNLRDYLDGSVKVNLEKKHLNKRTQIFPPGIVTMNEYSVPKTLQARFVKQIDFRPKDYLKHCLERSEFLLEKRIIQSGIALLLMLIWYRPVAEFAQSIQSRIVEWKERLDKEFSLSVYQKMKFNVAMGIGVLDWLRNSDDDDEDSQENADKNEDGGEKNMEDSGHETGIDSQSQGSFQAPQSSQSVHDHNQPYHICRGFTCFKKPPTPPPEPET
# Chain of Cytochrome P450 2D6 (P10635 whole entry): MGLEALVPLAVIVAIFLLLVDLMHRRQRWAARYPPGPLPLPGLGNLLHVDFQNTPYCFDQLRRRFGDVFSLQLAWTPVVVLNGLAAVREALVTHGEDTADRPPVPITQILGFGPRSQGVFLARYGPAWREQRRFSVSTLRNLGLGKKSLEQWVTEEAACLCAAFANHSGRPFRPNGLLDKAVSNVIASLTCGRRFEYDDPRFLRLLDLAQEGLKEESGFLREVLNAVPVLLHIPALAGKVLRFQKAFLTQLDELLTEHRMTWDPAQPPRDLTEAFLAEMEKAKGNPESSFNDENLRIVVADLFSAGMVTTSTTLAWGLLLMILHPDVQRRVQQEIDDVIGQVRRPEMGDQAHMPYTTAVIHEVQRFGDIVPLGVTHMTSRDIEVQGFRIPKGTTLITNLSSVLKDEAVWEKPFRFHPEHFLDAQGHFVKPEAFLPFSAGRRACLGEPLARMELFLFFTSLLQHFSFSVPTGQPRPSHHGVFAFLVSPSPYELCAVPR
smiles,measurement,setting,value
CNS(=O)(=O)c1ccc(N/C=C2/C(=O)NC(=O)N(c3ccccc3)C2=O)cc1,EC50,"Troponin, cardiac muscle",> 71.5 µM (inactive)
CN(C)c1ccc(NC(=O)c2sc(SCC(=O)Nc3nccs3)nc2N)cc1,CC50,[1],100 µM (active)
same,EC50,[2],0.236 µM (active)
same,EC50,[3],0.575 µM (active)
same,EC50,[4],< 0.1 µM (active)
same,IC50,[5],107 µM (active)
same,EC50,[6],1.28 µM (active)
CC(=O)NCCc1c[nH]c2ccc(O)cc12 [ACETYLSEROTONIN],IC50,Large T antigen,21.7 µM (active)
same,AC50,Cytochrome P450 3A4 [7],25.1 µM (inconclusive)
same,AC50,Cytochrome P450 1A2,15.8 µM (inconclusive)
same,AC50,Cytochrome P450 3A4 [8],7.94 µM (inconclusive)
same,AC50,Cytochrome P450 2D6,15.8 µM (inconclusive)
Cc1cnc(/N=c2\ssnc2Cl)cn1,IC50,[9],> 100 µM (inactive)
CC(C)C1=CC2=CCC3[C@@](C)(CCC[C@@]3(C)C(=O)O)C2CC1 (stereo partly drawn),AC50,Cytochrome P450 3A4 [7],39.8 µM (inconclusive)
CCCCCC(=O)NNC(=S)NC(C)=O,EC50,[10],> 50 µM (active)
Cc1ccc(OCc2nnc(NC(=O)c3cccnc3)s2)cc1,EC50,[10],> 50 µM (active)
COCCN1CCn2c(nc3cc(NC(=O)NC4CCCCC4)ccc32)C1,IC50,Bcl-2-like protein 10,> 12.5 µM (inactive)
O=C(NCc1nnc(SCC(=O)N2CCCCCC2)o1)c1ccco1,EC50,"Troponin, cardiac muscle",> 71.5 µM (inactive)
CCOc1ccc(C(=O)OCC(=O)NCc2ccco2)cc1OCC,IC50,Bcl-2-like protein 10,> 100 µM (inactive)
same,IC50,Estrogen receptor beta [11],0.113 µM (not active)
same,IC50,Estrogen receptor beta [12],> 50 µM (not active)
CCN(Cc1ccccc1)S(=O)(=O)c1cc2nc(O)c(O)nc2cc1C,AC50,HeLa,> 350 µM (inactive)
CC(C)N(C(S)=Nc1cccnc1)c1ccccc1,AC50,HeLa,> 350 µM (inactive)
CCc1ccc(NC2=NCCCS2)cc1,EC50,[10],> 50 µM (active)
CCOC(=O)c1c(C)oc2c1c(CN1CCN(C(=O)OCC)CC1)c(O)c1ccccc12,IC50,[13],3.95 µM (active)
same,IC50,[14],> 50 µM (not active)
CNC(=O)c1[nH]cnc1C(=O)Nc1cccc(OC)c1,IC50,[15],50.1 µM (not active)
CC(=O)NC(=NOCc1ccc(Br)cc1)c1nonc1NC(C)=O,AC50,HeLa,> 350 µM (inactive)
COc1ccccc1-c1nn2c(-c3ccco3)nnc2s1,IC50,[16],12 µM (active)
same,EC50,H4,14.9 µM (active)
same,EC50,[17],0.129 µM (active)
same,EC50,[2],0.613 µM (active)
same,EC50,[3],0.431 µM (active)
same,EC50,[4],< 0.1 µM (active)
same,EC50,[6],1.27 µM (active)
"O=c1c(O)c(-c2ccccc2)oc2cc(O)ccc12 [3,7-DIHYDROXYFLAVONE]",AC50,Cytochrome P450 3A4 [7],39.8 µM (inconclusive)
Cc1cc2n(n1)SC(Nc1ccc(F)cc1)N2 (stereo not drawn),IC50,Phosphomannomutase 2,> 100 µM (inactive)
same,IC50,[9],> 50 µM (inactive)
COc1ccc(C(C)=O)cc1COC(=O)c1cc(C)oc1C,IC50,[15],61.8 µM (not active)
O=C(NCc1ccccc1)c1cccc(COc2ccc(Cl)cc2)c1,EC50,H4,> 120 µM (not active)
same,EC50,[2],0.261 µM (active)
same,EC50,[3],> 12 µM (not active)
same,EC50,[4],< 0.1 µM (active)
same,EC50,[6],> 12 µM (not active)
COc1ccccc1NC(=O)COC(=O)c1cnc(C)cn1,EC50,"Troponin, cardiac muscle",> 71.5 µM (inactive)
CS(=O)(=O)c1ccc2nc(-n3sc4ccccc4c3=O)sc2c1,IC50,Phosphomannomutase 2,> 100 µM (inactive)
same,IC50,[9],> 50 µM (inactive)
COc1ccc(NC(=O)c2cnn3c(C(F)(F)F)cc(-c4ccco4)nc23)cc1OC,IC50,Bcl-2-like protein 10,66.8 µM (inactive)
CC(C)[C@H](NC(=O)c1ccccc1F)C(=O)NC1CCCCCCC1,AC50,HeLa,135 µM (active)
COc1cccc(COC(=O)Nc2ccccc2F)c1,EC50,[2],0.456 µM (active)
same,EC50,[3],0.344 µM (active)
same,EC50,[4],< 0.1 µM (inconclusive)
same,EC50,[6],0.301 µM (active)
